Measured values as given in ChEMBL document CHEMBL5257075, “Design, synthesis and biological evaluation of quinazoline SOS1 inhibitors” (Bioorg Med Chem Lett, 2023).
pIC50: −log10 of the molar value.

Legend:
[1] = target: T1, Son of sevenless homolog 1 (Homo sapiens, UniProt Q07889); test: Inhibition of SOS1 (unknown origin)
T1 sequence (Q07889 whole entry): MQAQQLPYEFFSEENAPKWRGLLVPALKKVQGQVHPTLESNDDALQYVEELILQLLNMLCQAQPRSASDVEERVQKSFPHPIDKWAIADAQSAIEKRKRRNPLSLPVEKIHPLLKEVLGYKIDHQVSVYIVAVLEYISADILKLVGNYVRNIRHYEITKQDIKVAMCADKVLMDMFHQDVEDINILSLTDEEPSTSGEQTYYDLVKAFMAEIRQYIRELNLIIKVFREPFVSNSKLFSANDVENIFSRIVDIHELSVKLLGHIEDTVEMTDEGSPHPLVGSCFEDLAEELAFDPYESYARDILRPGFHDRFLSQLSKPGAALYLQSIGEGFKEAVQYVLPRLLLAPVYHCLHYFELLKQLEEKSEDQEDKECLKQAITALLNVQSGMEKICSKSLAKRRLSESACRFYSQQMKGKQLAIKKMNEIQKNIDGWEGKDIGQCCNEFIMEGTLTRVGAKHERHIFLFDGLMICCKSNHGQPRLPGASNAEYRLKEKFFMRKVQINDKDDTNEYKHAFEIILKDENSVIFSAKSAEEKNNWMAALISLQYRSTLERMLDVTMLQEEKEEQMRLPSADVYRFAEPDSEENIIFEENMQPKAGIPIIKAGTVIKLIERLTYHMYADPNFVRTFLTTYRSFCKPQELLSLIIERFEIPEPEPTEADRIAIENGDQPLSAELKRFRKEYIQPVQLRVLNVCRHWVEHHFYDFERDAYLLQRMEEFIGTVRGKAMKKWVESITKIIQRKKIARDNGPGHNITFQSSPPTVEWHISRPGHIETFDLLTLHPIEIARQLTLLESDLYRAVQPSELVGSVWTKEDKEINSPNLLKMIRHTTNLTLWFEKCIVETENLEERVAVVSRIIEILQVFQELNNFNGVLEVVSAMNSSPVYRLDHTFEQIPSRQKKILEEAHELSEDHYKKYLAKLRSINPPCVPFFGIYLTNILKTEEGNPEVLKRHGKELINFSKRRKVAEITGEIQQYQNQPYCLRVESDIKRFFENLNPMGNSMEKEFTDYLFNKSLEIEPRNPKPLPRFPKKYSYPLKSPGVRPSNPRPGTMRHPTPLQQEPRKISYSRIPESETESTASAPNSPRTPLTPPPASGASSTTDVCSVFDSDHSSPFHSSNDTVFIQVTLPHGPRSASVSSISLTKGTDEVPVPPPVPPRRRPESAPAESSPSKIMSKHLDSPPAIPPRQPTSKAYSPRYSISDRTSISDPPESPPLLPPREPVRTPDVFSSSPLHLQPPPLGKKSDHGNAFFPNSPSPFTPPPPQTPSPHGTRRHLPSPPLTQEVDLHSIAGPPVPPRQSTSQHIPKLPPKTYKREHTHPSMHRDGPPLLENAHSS

NCI-H838 = test: Antiproliferative activity against human NCI-H838 cells assessed as inhibition of cell proliferation; assay type: functional, cell-based
[2] = target: Epidermal growth factor receptor (Homo sapiens) (UniProt P00533); test: Inhibition of wild type EGFR (unknown origin) at 5000 nM
Chain of Epidermal growth factor receptor (Homo sapiens) (P00533 whole entry): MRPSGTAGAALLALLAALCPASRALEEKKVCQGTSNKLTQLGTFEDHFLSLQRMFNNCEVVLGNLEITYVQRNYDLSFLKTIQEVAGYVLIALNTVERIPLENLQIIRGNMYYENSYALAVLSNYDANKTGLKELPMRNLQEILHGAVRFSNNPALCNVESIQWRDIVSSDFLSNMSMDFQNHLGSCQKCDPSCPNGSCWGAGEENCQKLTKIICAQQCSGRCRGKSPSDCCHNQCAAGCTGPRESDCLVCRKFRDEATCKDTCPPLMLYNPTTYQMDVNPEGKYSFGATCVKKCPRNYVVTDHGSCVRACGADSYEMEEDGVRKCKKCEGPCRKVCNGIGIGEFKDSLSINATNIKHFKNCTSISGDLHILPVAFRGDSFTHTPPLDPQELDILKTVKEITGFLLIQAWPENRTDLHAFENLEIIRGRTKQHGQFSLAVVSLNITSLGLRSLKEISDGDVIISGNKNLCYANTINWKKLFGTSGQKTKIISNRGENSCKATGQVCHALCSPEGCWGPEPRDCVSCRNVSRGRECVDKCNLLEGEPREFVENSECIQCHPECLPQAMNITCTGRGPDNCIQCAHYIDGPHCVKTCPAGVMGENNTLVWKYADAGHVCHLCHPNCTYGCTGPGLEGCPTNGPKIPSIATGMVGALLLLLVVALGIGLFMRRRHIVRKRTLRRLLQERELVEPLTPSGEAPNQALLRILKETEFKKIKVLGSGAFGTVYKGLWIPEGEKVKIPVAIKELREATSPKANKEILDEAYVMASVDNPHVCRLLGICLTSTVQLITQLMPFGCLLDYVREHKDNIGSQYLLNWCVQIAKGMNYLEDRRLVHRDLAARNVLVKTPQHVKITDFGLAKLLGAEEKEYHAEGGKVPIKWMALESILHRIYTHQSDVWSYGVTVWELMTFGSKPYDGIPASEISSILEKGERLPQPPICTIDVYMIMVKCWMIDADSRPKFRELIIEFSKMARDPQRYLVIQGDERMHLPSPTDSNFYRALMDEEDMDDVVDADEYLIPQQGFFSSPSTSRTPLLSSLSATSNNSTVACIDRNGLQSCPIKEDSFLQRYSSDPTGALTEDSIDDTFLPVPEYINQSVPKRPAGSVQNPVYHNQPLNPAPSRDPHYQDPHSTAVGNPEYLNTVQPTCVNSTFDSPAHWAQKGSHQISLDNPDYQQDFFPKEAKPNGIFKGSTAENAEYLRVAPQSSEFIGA

K562 = test: Antiproliferative activity against human K562 cells assessed as inhibition of cell proliferation; assay type: functional, cell-based
[3] = target: T2, Son of sevenless homolog 1 (Homo sapiens) (UniProt Q07889); test: Inhibition of SOS1 (unknown origin) at 500 nM
T2 sequence (whole entry): T1 sequence (Q07889 whole entry)

Row | inhibition [3] | Structure (SMILES) | pIC50 [1] | pIC50 (NCI-H838) | inhibition [2] | pIC50 (K562)
1 | 98.7% | CNCc1ccccc1-c1ccc(C(C)Nc2ncnc3cc(OC)c(OC)cc23)s1 (racemic) | – | – | – | –
2 | 38.7% | COc1cc2ncnc(NC(C)c3ccc(-c4ccccc4C(N)=O)s3)c2cc1OC (racemic) | – | – | – | –
3 | 75.9% | CNCc1ccccc1-c1ccc(C(C)Nc2ncnc3cc4c(cc23)OCCO4)s1 (racemic) | – | – | – | –
4 | 79.4% | CC(Nc1ncnc2cc3c(cc12)OCCO3)c1ccc(-c2ccccc2CNCCO)s1 (racemic) | – | – | – | –
5 | 75.2% | COc1cc2ncnc(NC(C)c3ccc(-c4ccccc4N)s3)c2cc1OC (racemic) | – | – | – | –
6 | 65.7% | COc1cc2ncnc(NC(C)c3cc(-c4ccccc4O)cs3)c2cc1OC (racemic) | – | – | – | –
7 | 33.7% | COc1cc2ncnc(NC(C)c3cc(-c4ccccc4C(N)=O)cs3)c2cc1OC (racemic) | – | – | – | –
8 | 43.9% | COc1cc2ncnc(NC(C)c3ccc(-c4ccccc4O)s3)c2cc1OC (racemic) | – | – | – | –
9 | 61% | COc1cc2ncnc(NC(C)c3cc(-c4ccccc4N)cs3)c2cc1OC (racemic) | – | – | – | –

Further lines, the molecule ahead of its results:

Row | Structure (SMILES) | inhibition [3] | pIC50 [1] | pIC50 (NCI-H838) | inhibition [2] | pIC50 (K562)
10 | CNCc1ccccc1-c1csc(C(C)Nc2ncnc3cc4c(cc23)OCCO4)c1 (racemic) | 78.5% | 7.01 | < 4.60 | 22.2% | 5.54
11 | COc1cc2ncnc(NC(C)c3cc(-c4ccccc4CNCCO)cs3)c2cc1OC (racemic) | 97.5% | 7.74 | – | – | 5.39
12 | CNCc1ccccc1-c1csc([C@@H](C)Nc2nc(C)nc3cc(OC)c(OC)cc23)c1 [BAY-293] | – | – | – | – | 6.64
13 | CC(Nc1ncnc2cc3c(cc12)OCCO3)c1cc(-c2ccccc2CNCCO)cs1 (racemic) | 80.2% | – | – | – | –
14 | CNCc1ccccc1-c1csc(C(C)Nc2nc(C)nc3cc4c(cc23)OCCO4)c1 (racemic) | 81.4% | 7.57 | – | – | 5.46
15 | CNCc1ccccc1-c1ccc(C(C)Nc2nc(C)nc3cc4c(cc23)OCCO4)s1 (racemic) | 77.3% | – | – | – | –
16 | CNCc1ccccc1-c1csc(C(C)Nc2ncnc3cc(OC)c(OC)cc23)c1 (racemic) | 99% | 7.70 | < 4.60 | 38.1% | 5.66
17 | Cc1nc(NC(C)c2ccc(-c3ccccc3CNCCO)s2)c2cc3c(cc2n1)OCCO3 (racemic) | 89.1% | – | – | – | –
18 | COc1cc2ncnc(NC(C)c3ccc(-c4ccccc4CNCCO)s3)c2cc1OC (racemic) | 99.1% | 8.07 | < 4.60 | 20.7% | 6.05
19 | Cc1nc(NC(C)c2cc(-c3ccccc3CNCCO)cs2)c2cc3c(cc2n1)OCCO3 (racemic) | 85.1% | 7.35 | – | – | 5.61
